Test results published in patent US20040106545A1, “Compounds and methods for modulating cell adhesion” (priority 1996, published 2004).
“Also recorded” adds a separate entry of the source.

Tests used:
control 3T3 cells = test: Neurite outgrowth of rat cerebellar neurons on control 3T3 monolayers (Example 15); assay type: cell-based; conditions: increasing concentrations (FIG. 23)
Method: (§1) Cell culture and neurite outgrowth assays. Co-cultures of cerebellar neurons on monolayers of control 3T3 cells and monolayers of transfected 3T3 cells that express physiological levels of chick N-cadherin or human L1 were established as previously described (Williams et al., Neuron 13:583-594, 1994). In brief, 80,000 3T3 cells (control and transfected) were plated into individual chambers of an eight-chamber tissue culture slide coated with polylysine and fibronectin and cultured in DMEM/10% FCS. After 24 hours, when confluent monolayers had formed, the medium was removed and 3000 cerebellar neurons isolated from post-natal day 2-3 rats were plated into each well in SATO media (Doherty et al., Nature 343:464-466, 1990) supplemented with 2% FCS. All of the test peptides were added immediately before the neurons as a 2× stock prepared in SATO/2% FCS. The co-cultures were maintained for 16-18 hours, at which time they were fixed and immunostained for GAP-43 which is present only in the neurons and delineates the neuritic processes. The mean length of the longest neurite per cell was measured for 150-200 neurons sampled in replicate cultures as previously described (Williams et al., Neuron 13:583-594, 1994). […] Dose-response curves were evaluated and the EC50 values determined.

L1 = L1 (Homo sapiens, UniProt P32004); test: Neurite outgrowth of rat cerebellar neurons on L1 expressing 3T3 monolayers (Example 15); assay type: cell-based; set-up: expressed in transfected cells; rat cerebellar neurons on top; conditions: 125 μg/ml; read-out: % Inhibition of L1 Response
L1, sequence (P32004 20-1257): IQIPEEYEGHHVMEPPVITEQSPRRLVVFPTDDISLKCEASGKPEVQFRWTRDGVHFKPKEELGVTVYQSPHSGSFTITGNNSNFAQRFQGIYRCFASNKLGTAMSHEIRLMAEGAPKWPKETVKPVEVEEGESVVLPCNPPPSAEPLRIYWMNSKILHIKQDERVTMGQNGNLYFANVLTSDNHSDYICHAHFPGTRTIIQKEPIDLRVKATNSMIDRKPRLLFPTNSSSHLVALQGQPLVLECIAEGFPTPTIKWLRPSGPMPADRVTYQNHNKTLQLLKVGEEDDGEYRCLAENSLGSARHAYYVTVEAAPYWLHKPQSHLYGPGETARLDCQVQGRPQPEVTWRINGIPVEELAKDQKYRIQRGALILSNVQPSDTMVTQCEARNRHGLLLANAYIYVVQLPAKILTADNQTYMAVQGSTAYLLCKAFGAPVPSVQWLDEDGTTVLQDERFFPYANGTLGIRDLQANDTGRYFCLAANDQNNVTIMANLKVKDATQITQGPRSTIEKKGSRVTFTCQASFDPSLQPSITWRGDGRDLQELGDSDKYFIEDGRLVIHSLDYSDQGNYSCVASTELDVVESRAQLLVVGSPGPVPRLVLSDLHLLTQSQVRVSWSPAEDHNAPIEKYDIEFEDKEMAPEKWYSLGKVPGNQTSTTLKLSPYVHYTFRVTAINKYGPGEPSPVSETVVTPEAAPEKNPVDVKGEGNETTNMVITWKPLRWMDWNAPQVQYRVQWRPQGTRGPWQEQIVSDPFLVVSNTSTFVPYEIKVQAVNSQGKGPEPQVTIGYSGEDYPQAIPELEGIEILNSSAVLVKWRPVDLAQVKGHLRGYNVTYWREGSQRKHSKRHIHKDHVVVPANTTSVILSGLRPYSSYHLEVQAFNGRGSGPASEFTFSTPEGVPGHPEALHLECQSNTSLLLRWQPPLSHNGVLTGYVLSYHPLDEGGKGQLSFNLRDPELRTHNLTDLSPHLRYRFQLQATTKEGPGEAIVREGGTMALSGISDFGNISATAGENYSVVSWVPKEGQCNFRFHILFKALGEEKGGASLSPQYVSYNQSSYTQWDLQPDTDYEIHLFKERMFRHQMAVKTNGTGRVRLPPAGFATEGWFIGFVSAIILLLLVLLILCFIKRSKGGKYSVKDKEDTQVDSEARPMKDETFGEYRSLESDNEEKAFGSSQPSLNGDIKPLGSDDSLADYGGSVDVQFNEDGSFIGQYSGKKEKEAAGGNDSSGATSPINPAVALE
Method: as §1
Other cell adhesion molecules, such as L1, can stimulate neurite outgrowth, and this response shares the same downstream signaling steps as the N-cadherin response. […] As previously reported, L1 stimulated neurite outgrowth from cerebellar neurons.

OVCAR-3 = test: Disruption of OVCAR-3 ovarian cancer cell adhesion; assay type: cell-based, human; conditions: 1, 0.1, or 0.01 mg/ml, up to 48 hours
Method: The human ovarian cancer cell line OVCAR-3, which expresses E-cadherin, was used in these experiments. Cells were cultured in RPMI supplemented with insulin and containing 20% FCS. Cells were grown in T-250 culture flasks and maintained by periodic subculturing. Cells were harvested from flasks and seeded in individual wells of 96-well culture dishes (surface area of each well was 0.32 cm^2) at a density of 50,000 cells per well in 0.1 ml media containing the cyclic peptides (at concentrations of 1, 0.1, or 0.01 mg/ml). Media control wells were also established. Cultures were evaluated periodically by microscopic examination under both bright field and phase contrast conditions, and were maintained for 48 hours.

SKOV3 tumors [1] = test: Human ovarian (SKOV3) tumors grown in nude mice: tumor volume and histology; assay type: in vivo, mouse
Method: (§2) SKOV3 cells (ATCC) were grown to 70% confluence in Minimum Essential Medium (Life Technologies, Grand Island, N.Y.) supplemented with 10% Fetal Bovine Serum (Wisent, St. Bruno, Quebec) in a humidified atmosphere containing 5% CO2. Cells were then dissociated with 0.02% PBS/EDTA. Total cell count and viable cell number was determined by trypan blue stain and a hemacytometer.
Approximately 1×10^7 cells were resuspended in 400 μl saline and injected in 6-week-old CD-1 nude mice (female, Charles River) subcutaneously. After 20 days of continuous tumor growth, tumor size was about 100 mm^3. The tumor-bearing animals were then injected intraperitoneally every day for 4 consecutive days with 20 mg/kg of the representative peptide modulating agent N—Ac-CHAVC-NH2 (SEQ ID NO:10) and saline, for experimental and control respectively. Mice were sacrificed by cervical dislocation 4 days after final injection.
Tumor tissue was dissected and fixed in PBS with 4% paraformaldehyde for 48 hours. Specimens were then dehydrated in a series of alcohol incubations, and embedded in paraffin wax. Tissues were sectioned, rehydrated and stained with hematoxylin/eosin for morphological purposes. Representative sections obtained from treated and untreated mice are shown in FIGS. 28B and 28A, respectively.
Within similar experiments, tumor-bearing nude mice as described above were injected intraperitoneally with 2 mg/kg of the representative peptide modulating agent N—Ac-CHAVC-NH2 (SEQ ID NO:10) and saline, for experimental and control respectively. Injections were performed every day for 4 days. Mice were sacrificed 24 hours after the last injection. Tumor tissue was fixed, sectioned and stained as described above. Representative sections obtained from treated and untreated mice are shown in FIGS. 30A and 30B, respectively.
In a similar study, the effect of N—Ac-CHAVC-NH2 (SEQ ID NO:10) on ovarian tumor growth was evaluated at 2 mg/kg and 0.2 mg/kg. Mice were treated as described above with saline alone, 2 mg/kg peptide or 0.2 mg/kg peptide once per day for 5 days. The percent change in tumor volume (relative to the tumor size at day 1) was determined.

SKOV3 tumors [2] = test: Induction of apoptosis in SKOV3 tumors in nude mice (Apoptag); assay type: in vivo, mouse
Method: as §2
Approximately 1×10^7 cells were resuspended in 400 μl saline and injected in 6-week-old CD-1 nude mice (female, Charles River) subcutaneously. After 20 days of continuous tumor growth, tumor size was about 4.0 mm. The tumor-bearing animals were then injected intraperitoneally every day with 20 mg/kg of the representative peptide modulating agent N—Ac-CHAVC-NH2 (SEQ ID NO:10) or saline, for 48 hours, 96 hours, 120 hours or 168 hours. […]
Tumor tissue was dissected and fixed in PBS with 4% paraformaldehyde for 48 hours. Specimens were then dehydrated in a series of alcohol incubations, and embedded in paraffin wax. Apoptosis was assessed using the Apoptag kit (Intergen, Purchase N.Y.) according to the manufacturer's protocol, with slight modifications. More specifically, sections were deparaffinized and re-hydrated. After a five minute wash with PBS, the slides were treated with 20 μg/ml Proteinase K in PBS for 15 minutes at room temperature. This was followed by two washes with distilled water (2 minutes each wash). […]

## CC(=O)N[C@H]1CSSC[C@@H](C(N)=O)NC(=O)[C@H](C(C)C)NC(=O)[C@H](C)NC(=O)[C@H](Cc2c[nH]cn2)NC1=O [N—Ac—CHAVC—NH2, N-Ac-Cys-His-Ala-Val-Cys-NH2]
Control 3T3 cells
  effect on neurite extension over control 3T3 cells: had no effect on the basal growth over 3T3 cells; also recorded: no significant effect on neurite extension over control 3T3 cells
L1
  inhibition at 125 µg/mL: 41.6 ± 8.6%
OVCAR-3
  disruption of OVCAR-3 adhesion: inactive
SKOV3 tumors [1]; 0.2 mg/kg once per day for 5 days
  change in tumor volume: grew at a slower rate than tumors treated with saline
SKOV3 tumors [1]; 2 mg/kg intraperitoneally every day for 4 days, Von Willebrand Factor VIII stain
  effect on tumor blood vessels and tumor growth: capable of damaging tumor blood vessels and stopping tumor growth in vivo
SKOV3 tumors [1]; 2 mg/kg once per day for 5 days
  change in tumor volume: slight reduction in volume over the five day study
SKOV3 tumors [1]; 20 mg/kg intraperitoneally every day for 4 consecutive days
  tumor growth / tumor size: prevents detectable tumor growth and results in a substantial decrease in tumor size
SKOV3 tumors [2]; 20 mg/kg ip every day for 48, 96, 120 or 168 hours
  apoptotic cells in tumor sections: show an increase in apoptotic cells with longer treatment
SKOV3 tumors [2]; 20 mg/kg once daily for four days, sacrificed 11 days after the last treatment
  apoptotic cells in tumor sections: extensive area of apoptotic cells within the center of the tumor
